{"source": "PubChem BioAssay AID1963431", "about": "(Molecular Pharmacology Branch, DTP, NCI, 2024)", "test_system": "Rh18 complex spheroid viability, percent test/control", "assay": "Anticancer human tumor Rh18 cell line growth inhibition [Asc];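 for all read-outs here: spheroids exposed to compound for 7 days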;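 for viability, T/C: 100% = DMSO vehicle control wells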", "settings": "for IC50: curve of first compound; for viability, T/C: stronger effect = lower value", "summary_of_the_method": "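Concentration series start at each agent's clinical Cmax, or at 10 microM when none is established, and drop in half-log steps; agents are applied alone or together to complex spheroids built with HUVEC and hMSC.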", "data": [{"smiles": "NC(=O)C(=Cn1cnc(-c2cc(C(F)(F)F)cc(C(F)(F)F)c2)n1)c1cncnc1", "note": "+ CNC(C)C(=O)NC1CN(S(=O)(=O)c2cccc(S(=O)(=O)N3CCC4CCC(C(=O)NC(c5ccccc5)c5ccccc5)N4C(=O)C(NC(=O)C(C)NC)C3)c2)CCC2CCC(C(=O)NC(c3ccccc3)c3ccccc3)N2C1=O", "values": [{"measurement": "IC50", "setting": "second compound 0.01 µM", "value": 6.12, "unit": "nM"}, {"measurement": "IC50", "setting": "second compound 0.0316 µM", "value": 3.91, "unit": "nM"}, {"measurement": "IC50", "setting": "second compound 0.1 µM", "value": 15, "unit": "nM"}, {"measurement": "IC50", "setting": "second compound 0.316 µM", "value": 4.49, "unit": "nM"}, {"measurement": "IC50", "setting": "second compound 1 µM", "value": "< 0.949", "unit": "nM"}, {"measurement": "viability, T/C", "setting": "second compound 0.01 µM, first compound 0.000949 µM", "value": 56.6, "unit": "%"}, {"measurement": "viability, T/C", "setting": "second compound 0.01 µM, first compound 0.003 µM", "value": 53.5, "unit": "%"}, {"measurement": "viability, T/C", "setting": "second compound 0.01 µM, first compound 0.00949 µM", "value": 49.4, "unit": "%"}, {"measurement": "viability, T/C", "setting": "second compound 0.01 µM, first compound 0.03 µM", "value": 39.7, "unit": "%"}, {"measurement": "viability, T/C", "setting": "second compound 0.01 µM, first compound 0.0949 µM", "value": 42, "unit": "%"}, {"measurement": "viability, T/C", "setting": "second compound 0.01 µM, first compound 0.3 µM", "value": 32.8, "unit": "%"}, {"measurement": "viability, T/C", "setting": "second compound 0.0316 µM, first compound 0.000949 µM", "value": 74.8, "unit": "%"}, {"measurement": "viability, T/C", "setting": "second compound 0.0316 µM, first compound 0.003 µM", "value": 51.3, "unit": "%"}, {"measurement": "viability, T/C", "setting": "second compound 0.0316 µM, first compound 0.00949 µM", "value": 40.7, "unit": "%"}, {"measurement": "viability, T/C", "setting": "second compound 0.0316 µM, first compound 0.03 µM", "value": 43.8, "unit": "%"}, {"measurement": "viability, T/C", "setting": "second compound 0.0316 µM, first compound 0.0949 µM", "value": 38.7, "unit": "%"}, {"measurement": "viability, T/C", "setting": "second compound 0.0316 µM, first compound 0.3 µM", "value": 31.4, "unit": "%"}, {"measurement": "viability, T/C", "setting": "second compound 0.1 µM, first compound 0.000949 µM", "value": 50.5, "unit": "%"}, {"measurement": "viability, T/C", "setting": "second compound 0.1 µM, first compound 0.003 µM", "value": 56.4, "unit": "%"}, {"measurement": "viability, T/C", "setting": "second compound 0.1 µM, first compound 0.00949 µM", "value": 49.7, "unit": "%"}, {"measurement": "viability, T/C", "setting": "second compound 0.1 µM, first compound 0.03 µM", "value": 47.6, "unit": "%"}, {"measurement": "viability, T/C", "setting": "second compound 0.1 µM, first compound 0.0949 µM", "value": 33.1, "unit": "%"}, {"measurement": "viability, T/C", "setting": "second compound 0.1 µM, first compound 0.3 µM", "value": 27.7, "unit": "%"}, {"measurement": "viability, T/C", "setting": "second compound 0.316 µM, first compound 0.000949 µM", "value": 52, "unit": "%"}, {"measurement": "viability, T/C", "setting": "second compound 0.316 µM, first compound 0.003 µM", "value": 60.1, "unit": "%"}, {"measurement": "viability, T/C", "setting": "second compound 0.316 µM, first compound 0.00949 µM", "value": 38.7, "unit": "%"}, {"measurement": "viability, T/C", "setting": "second compound 0.316 µM, first compound 0.03 µM", "value": 29.7, "unit": "%"}, {"measurement": "viability, T/C", "setting": "second compound 0.316 µM, first compound 0.0949 µM", "value": 34.3, "unit": "%"}, {"measurement": "viability, T/C", "setting": "second compound 0.316 µM, first compound 0.3 µM", "value": 24.9, "unit": "%"}, {"measurement": "viability, T/C", "setting": "second compound 1 µM, first compound 0.000949 µM", "value": 46, "unit": "%"}, {"measurement": "viability, T/C", "setting": "second compound 1 µM, first compound 0.003 µM", "value": 39.5, "unit": "%"}, {"measurement": "viability, T/C", "setting": "second compound 1 µM, first compound 0.00949 µM", "value": 38, "unit": "%"}, {"measurement": "viability, T/C", "setting": "second compound 1 µM, first compound 0.03 µM", "value": 37.8, "unit": "%"}, {"measurement": "viability, T/C", "setting": "second compound 1 µM, first compound 0.0949 µM", "value": 34.3, "unit": "%"}, {"measurement": "viability, T/C", "setting": "second compound 1 µM, first compound 0.3 µM", "value": 25.6, "unit": "%"}]}, {"smiles": "NC1CCC(NC2CC2c2ccccc2)CC1", "note": "(stereo not given) + CNC(C)C(=O)NC1CN(S(=O)(=O)c2cccc(S(=O)(=O)N3CCC4CCC(C(=O)NC(c5ccccc5)c5ccccc5)N4C(=O)C(NC(=O)C(C)NC)C3)c2)CCC2CCC(C(=O)NC(c3ccccc3)c3ccccc3)N2C1=O", "values": [{"measurement": "IC50", "setting": "second compound 0.01 µM", "value": "> 100", "unit": "nM"}, {"measurement": "IC50", "setting": "second compound 0.0316 µM", "value": "> 100", "unit": "nM"}, {"measurement": "IC50", "setting": "second compound 0.1 µM", "value": "< 0.316", "unit": "nM"}, {"measurement": "IC50", "setting": "second compound 0.316 µM", "value": "> 100", "unit": "nM"}, {"measurement": "IC50", "setting": "second compound 1 µM", "value": "< 0.316", "unit": "nM"}, {"measurement": "viability, T/C", "setting": "second compound 0.01 µM, first compound 0.000316 µM", "value": 53.7, "unit": "%"}, {"measurement": "viability, T/C", "setting": "second compound 0.01 µM, first compound 0.001 µM", "value": 72.9, "unit": "%"}, {"measurement": "viability, T/C", "setting": "second compound 0.01 µM, first compound 0.00316 µM", "value": 72.5, "unit": "%"}, {"measurement": "viability, T/C", "setting": "second compound 0.01 µM, first compound 0.01 µM", "value": 66.5, "unit": "%"}, {"measurement": "viability, T/C", "setting": "second compound 0.01 µM, first compound 0.0316 µM", "value": 65.1, "unit": "%"}, {"measurement": "viability, T/C", "setting": "second compound 0.01 µM, first compound 0.1 µM", "value": 61.5, "unit": "%"}, {"measurement": "viability, T/C", "setting": "second compound 0.0316 µM, first compound 0.000316 µM", "value": 53, "unit": "%"}, {"measurement": "viability, T/C", "setting": "second compound 0.0316 µM, first compound 0.001 µM", "value": 53.9, "unit": "%"}, {"measurement": "viability, T/C", "setting": "second compound 0.0316 µM, first compound 0.00316 µM", "value": 53.5, "unit": "%"}, {"measurement": "viability, T/C", "setting": "second compound 0.0316 µM, first compound 0.01 µM", "value": 61.5, "unit": "%"}, {"measurement": "viability, T/C", "setting": "second compound 0.0316 µM, first compound 0.0316 µM", "value": 53.1, "unit": "%"}, {"measurement": "viability, T/C", "setting": "second compound 0.0316 µM, first compound 0.1 µM", "value": 53, "unit": "%"}, {"measurement": "viability, T/C", "setting": "second compound 0.1 µM, first compound 0.000316 µM", "value": 48.1, "unit": "%"}, {"measurement": "viability, T/C", "setting": "second compound 0.1 µM, first compound 0.001 µM", "value": 54.7, "unit": "%"}, {"measurement": "viability, T/C", "setting": "second compound 0.1 µM, first compound 0.00316 µM", "value": 48.7, "unit": "%"}, {"measurement": "viability, T/C", "setting": "second compound 0.1 µM, first compound 0.01 µM", "value": 55.5, "unit": "%"}, {"measurement": "viability, T/C", "setting": "second compound 0.1 µM, first compound 0.0316 µM", "value": 52.3, "unit": "%"}, {"measurement": "viability, T/C", "setting": "second compound 0.1 µM, first compound 0.1 µM", "value": 56.1, "unit": "%"}, {"measurement": "viability, T/C", "setting": "second compound 0.316 µM, first compound 0.000316 µM", "value": 53.6, "unit": "%"}, {"measurement": "viability, T/C", "setting": "second compound 0.316 µM, first compound 0.001 µM", "value": 54, "unit": "%"}, {"measurement": "viability, T/C", "setting": "second compound 0.316 µM, first compound 0.00316 µM", "value": 52.6, "unit": "%"}, {"measurement": "viability, T/C", "setting": "second compound 0.316 µM, first compound 0.01 µM", "value": 53.1, "unit": "%"}, {"measurement": "viability, T/C", "setting": "second compound 0.316 µM, first compound 0.0316 µM", "value": 53.6, "unit": "%"}, {"measurement": "viability, T/C", "setting": "second compound 0.316 µM, first compound 0.1 µM", "value": 59.4, "unit": "%"}, {"measurement": "viability, T/C", "setting": "second compound 1 µM, first compound 0.000316 µM", "value": 43.8, "unit": "%"}, {"measurement": "viability, T/C", "setting": "second compound 1 µM, first compound 0.001 µM", "value": 50.9, "unit": "%"}, {"measurement": "viability, T/C", "setting": "second compound 1 µM, first compound 0.00316 µM", "value": 42.6, "unit": "%"}, {"measurement": "viability, T/C", "setting": "second compound 1 µM, first compound 0.01 µM", "value": 44.8, "unit": "%"}, {"measurement": "viability, T/C", "setting": "second compound 1 µM, first compound 0.0316 µM", "value": 50.2, "unit": "%"}, {"measurement": "viability, T/C", "setting": "second compound 1 µM, first compound 0.1 µM", "value": 56, "unit": "%"}]}]}
